Like-named read-outs stand apart in the source and are kept apart here.
Assay: Study 1 Part 1: ascending single-dose PK in healthy men
Format: in vivo, human
Details: for Tmax / AUC(0-inf) / AUC(0-t) / Cmax / Vd/F / half-life: male, human, plasma, oral; for Tmax: N = 6, read-out: tmax, median
Description: Study 1 was a 2-part single-center trial in healthy adult male volunteers.
Part 1 of the study enrolled and randomized 55 healthy men (placebo, n=14; 2-, 5-, 15, 25-, 50, and 100-mg doses, n=6 each; 150-mg dose, n=5). Eight healthy men participated in Part 2. […]

In the case of CC(C)(NC(=O)O[C@@H]1CN2CCC1CC2)c1csc(-c2ccc(F)cc2)n1 [Compound 2, (S)-quinuclidin-3-yl 2-(2-(4-fluorophenyl)thiazol-4-yl)propan-2-ylcarbamate], the “CL/F, Geometric mean (CV)” value (2 mg single dose, N = 6) is reported as 6.3 (22.0) L/h, the “CL/F, Geometric mean (CV)” value (5 mg single dose, N = 6) is reported as 5.8 (17.3) L/h and the “CL/F, Geometric mean (CV)” value (15 mg single dose, N = 6) is reported as 5.6 (32.2) L/h. The “CL/F, Geometric mean (CV)” value (25 mg single dose, N = 6) was 5.0 (25.3) L/h, the “tmax, median” value (25 mg single dose, N = 6) was 5.00 h and the “CL/F, Geometric mean (CV)” value (50 mg single dose, N = 6) was 5.5 (34.9) L/h. For the same compound, the “CL/F, Geometric mean (CV)” value (100 mg single dose, N = 6) was 5.3 (23.4) L/h, the “tmax, median” value (100 mg single dose, N = 6) was 3.00 h and the “CL/F, Geometric mean (CV)” value (150 mg single dose, N = 5) was 5.6 (26.7) L/h. For the same compound, the Tmax (2 mg single dose) was 3.5 h, the AUC(0-inf) (2 mg, 2 mg single dose, N = 6, read-out: AUCinf, Geometric mean (CV)) was 237 ng·h/mL and the AUC(0-inf) (2 mg, 2 mg single dose, N = 6, read-out: AUCinf, Mean (SD)) was 243 ng·h/mL. It also gave an AUC(0-t) (2 mg, 2 mg single dose, N = 6, read-out: AUClast, Geometric mean (CV)) of 209 ng·h/mL, an AUC(0-t) (2 mg, 2 mg single dose, N = 6, read-out: AUClast, Mean (SD)) of 214 ng·h/mL and a Cmax (2 mg, 2 mg single dose, N = 6, read-out: Cmax, Geometric mean (CV)) of 5.6 ng/mL. The Cmax (2 mg, 2 mg single dose, N = 6, read-out: Cmax, Mean (SD)) was 5.7 ng/mL, the Vd/F (2 mg, 2 mg single dose, N = 6, read-out: Vss/F, Geometric mean (CV)) was 270 L and the Vd/F (2 mg, 2 mg single dose, N = 6, read-out: Vss/F, Mean (SD)) was 275 L. It also gave a half-life (2 mg, 2 mg single dose, N = 6, read-out: t1/2, Geometric mean (CV) (converted)) of 28.9 h, a half-life (2 mg, 2 mg single dose, N = 6, read-out: t1/2, Mean (SD) (converted)) of 29.2 h and a Tmax (5 mg single dose) of 5.5 h. It also gave an AUC(0-inf) (5 mg, 5 mg single dose, N = 6, read-out: AUCinf, Geometric mean (CV)) of 643 ng·h/mL, an AUC(0-inf) (5 mg, 5 mg single dose, N = 6, read-out: AUCinf, Mean (SD)) of 652 ng·h/mL and an AUC(0-t) (5 mg, 5 mg single dose, N = 6, read-out: AUClast, Geometric mean (CV)) of 556 ng·h/mL. It also gave an AUC(0-t) (5 mg, 5 mg single dose, N = 6, read-out: AUClast, Mean (SD)) of 560 ng·h/mL, a Cmax (5 mg, 5 mg single dose, N = 6, read-out: Cmax, Geometric mean (CV)) of 14.6 ng/mL and a Cmax (5 mg, 5 mg single dose, N = 6, read-out: Cmax, Mean (SD)) of 14.7 ng/mL. It also gave a Vd/F (5 mg, 5 mg single dose, N = 6, read-out: Vss/F, Geometric mean (CV)) of 273 L, a Vd/F (5 mg, 5 mg single dose, N = 6, read-out: Vss/F, Mean (SD)) of 274 L and a half-life (5 mg, 5 mg single dose, N = 6, read-out: t1/2, Geometric mean (CV) (converted)) of 32.5 h. The half-life (5 mg, 5 mg single dose, N = 6, read-out: t1/2, Mean (SD) (converted)) was 33.3 h, the Tmax (15 mg single dose) was 3.5 h and the AUC(0-inf) (15 mg, 15 mg single dose, N = 6, read-out: AUCinf, Geometric mean (CV)) was 1990 ng·h/mL. For the same compound, the AUC(0-inf) (15 mg, 15 mg single dose, N = 6, read-out: AUCinf, Mean (SD)) was 2070 ng·h/mL, the AUC(0-t) (15 mg, 15 mg single dose, N = 6, read-out: AUClast, Geometric mean (CV)) was 1760 ng·h/mL and the AUC(0-t) (15 mg, 15 mg single dose, N = 6, read-out: AUClast, Mean (SD)) was 1830 ng·h/mL. The Cmax (15 mg, 15 mg single dose, N = 6, read-out: Cmax, Geometric mean (CV)) was 50.7 ng/mL, the Cmax (15 mg, 15 mg single dose, N = 6, read-out: Cmax, Mean (SD)) was 53 ng/mL and the Vd/F (15 mg, 15 mg single dose, N = 6, read-out: Vss/F, Geometric mean (CV)) was 233 L. The Vd/F (15 mg, 15 mg single dose, N = 6, read-out: Vss/F, Mean (SD)) was 245 L, the half-life (15 mg, 15 mg single dose, N = 6, read-out: t1/2, Geometric mean (CV) (converted)) was 29 h and the half-life (15 mg, 15 mg single dose, N = 6, read-out: t1/2, Mean (SD) (converted)) was 29.7 h. For the same compound, the AUC(0-inf) (25 mg, 25 mg single dose, N = 6, read-out: AUCinf, Geometric mean (CV)) was 3690 ng·h/mL, the AUC(0-inf) (25 mg, 25 mg single dose, N = 6, read-out: AUCinf, Mean (SD)) was 3810 ng·h/mL and the AUC(0-t) (25 mg, 25 mg single dose, N = 6, read-out: AUClast, Geometric mean (CV)) was 3240 ng·h/mL. For the same compound, the AUC(0-t) (25 mg, 25 mg single dose, N = 6, read-out: AUClast, Mean (SD)) was 3380 ng·h/mL, the Cmax (25 mg, 25 mg single dose, N = 6, read-out: Cmax, Geometric mean (CV)) was 79.9 ng/mL and the Cmax (25 mg, 25 mg single dose, N = 6, read-out: Cmax, Mean (SD)) was 84.4 ng/mL. For the same compound, the Vd/F (25 mg, 25 mg single dose, N = 6, read-out: Vss/F, Geometric mean (CV)) was 228 L, the Vd/F (25 mg, 25 mg single dose, N = 6, read-out: Vss/F, Mean (SD)) was 240 L and the half-life (25 mg, 25 mg single dose, N = 6, read-out: t1/2, Geometric mean (CV) (converted)) was 29.8 h.
